Reference: patent publication US20250248998A1, “LRRK2 Inhibitors” (Brenig Therapeutics, Inc., priority 2022, published 2025)

Columns and labels:
LRRK2 WT = LRRK2 WT (Homo sapiens, UniProt Q5S007); assay: Cell-based NanoBRET target engagement assay in HEK293 cells transfected with LRRK2 WT-NanoLuc fusion vector; design: expressed in transfected cells; host or cells: HEK293 (ATCC); details: compound treatment 1 h
Procedure: (§1) Example C. Cell-Based NanoBRET Target Engagement Assay in 11EK293 Cells Transiently Transfected with LRRK2 WT- or LRRK2 (G2019S)-Nano Luc Fusion Vector
(§2) H1EK293 (ATCC) cells were transfected with […] LRRK2 WT or LRRK2 (G2019S) and 9 μg transfection carrier DNA. The transfected cells were treated with the compounds (starting at 1 μM, 10-dose with 3-fold dilution) and reference compounds CEP-701 or Staurosporine (starting at 1 μM, 10-dose with 3-fold dilution); compound treatment time: 1 h. LRRK2 WT and LRRK2 (G2019S) target engagement was measured by NanoBRET assay. Curve fits were performed only when % NanoBret signal at the highest concentration of compounds was less than […]. Assay format: 384-well format, 4000 cells/well. The IC50 values are shown in Table C, wherein “A” corresponds to IC50≤50.0 nM, “B” corresponds to 50.0 nM≤IC50<100.0 nM, “C” corresponds to 100.0 nM≤IC50.

LRRK2[G2019S] = LRRK2[G2019S] (Homo sapiens, UniProt Q5S007, G2019S); assay: Cell-based NanoBRET target engagement assay in HEK293 cells transfected with LRRK2 (G2019S)-NanoLuc fusion vector; design: expressed in transfected cells; host or cells: HEK293 (ATCC); details: compound treatment 1 h
Procedure: as §1, §2

LRRK2 WT, sequence (Q5S007 whole entry, the tested form may be a part): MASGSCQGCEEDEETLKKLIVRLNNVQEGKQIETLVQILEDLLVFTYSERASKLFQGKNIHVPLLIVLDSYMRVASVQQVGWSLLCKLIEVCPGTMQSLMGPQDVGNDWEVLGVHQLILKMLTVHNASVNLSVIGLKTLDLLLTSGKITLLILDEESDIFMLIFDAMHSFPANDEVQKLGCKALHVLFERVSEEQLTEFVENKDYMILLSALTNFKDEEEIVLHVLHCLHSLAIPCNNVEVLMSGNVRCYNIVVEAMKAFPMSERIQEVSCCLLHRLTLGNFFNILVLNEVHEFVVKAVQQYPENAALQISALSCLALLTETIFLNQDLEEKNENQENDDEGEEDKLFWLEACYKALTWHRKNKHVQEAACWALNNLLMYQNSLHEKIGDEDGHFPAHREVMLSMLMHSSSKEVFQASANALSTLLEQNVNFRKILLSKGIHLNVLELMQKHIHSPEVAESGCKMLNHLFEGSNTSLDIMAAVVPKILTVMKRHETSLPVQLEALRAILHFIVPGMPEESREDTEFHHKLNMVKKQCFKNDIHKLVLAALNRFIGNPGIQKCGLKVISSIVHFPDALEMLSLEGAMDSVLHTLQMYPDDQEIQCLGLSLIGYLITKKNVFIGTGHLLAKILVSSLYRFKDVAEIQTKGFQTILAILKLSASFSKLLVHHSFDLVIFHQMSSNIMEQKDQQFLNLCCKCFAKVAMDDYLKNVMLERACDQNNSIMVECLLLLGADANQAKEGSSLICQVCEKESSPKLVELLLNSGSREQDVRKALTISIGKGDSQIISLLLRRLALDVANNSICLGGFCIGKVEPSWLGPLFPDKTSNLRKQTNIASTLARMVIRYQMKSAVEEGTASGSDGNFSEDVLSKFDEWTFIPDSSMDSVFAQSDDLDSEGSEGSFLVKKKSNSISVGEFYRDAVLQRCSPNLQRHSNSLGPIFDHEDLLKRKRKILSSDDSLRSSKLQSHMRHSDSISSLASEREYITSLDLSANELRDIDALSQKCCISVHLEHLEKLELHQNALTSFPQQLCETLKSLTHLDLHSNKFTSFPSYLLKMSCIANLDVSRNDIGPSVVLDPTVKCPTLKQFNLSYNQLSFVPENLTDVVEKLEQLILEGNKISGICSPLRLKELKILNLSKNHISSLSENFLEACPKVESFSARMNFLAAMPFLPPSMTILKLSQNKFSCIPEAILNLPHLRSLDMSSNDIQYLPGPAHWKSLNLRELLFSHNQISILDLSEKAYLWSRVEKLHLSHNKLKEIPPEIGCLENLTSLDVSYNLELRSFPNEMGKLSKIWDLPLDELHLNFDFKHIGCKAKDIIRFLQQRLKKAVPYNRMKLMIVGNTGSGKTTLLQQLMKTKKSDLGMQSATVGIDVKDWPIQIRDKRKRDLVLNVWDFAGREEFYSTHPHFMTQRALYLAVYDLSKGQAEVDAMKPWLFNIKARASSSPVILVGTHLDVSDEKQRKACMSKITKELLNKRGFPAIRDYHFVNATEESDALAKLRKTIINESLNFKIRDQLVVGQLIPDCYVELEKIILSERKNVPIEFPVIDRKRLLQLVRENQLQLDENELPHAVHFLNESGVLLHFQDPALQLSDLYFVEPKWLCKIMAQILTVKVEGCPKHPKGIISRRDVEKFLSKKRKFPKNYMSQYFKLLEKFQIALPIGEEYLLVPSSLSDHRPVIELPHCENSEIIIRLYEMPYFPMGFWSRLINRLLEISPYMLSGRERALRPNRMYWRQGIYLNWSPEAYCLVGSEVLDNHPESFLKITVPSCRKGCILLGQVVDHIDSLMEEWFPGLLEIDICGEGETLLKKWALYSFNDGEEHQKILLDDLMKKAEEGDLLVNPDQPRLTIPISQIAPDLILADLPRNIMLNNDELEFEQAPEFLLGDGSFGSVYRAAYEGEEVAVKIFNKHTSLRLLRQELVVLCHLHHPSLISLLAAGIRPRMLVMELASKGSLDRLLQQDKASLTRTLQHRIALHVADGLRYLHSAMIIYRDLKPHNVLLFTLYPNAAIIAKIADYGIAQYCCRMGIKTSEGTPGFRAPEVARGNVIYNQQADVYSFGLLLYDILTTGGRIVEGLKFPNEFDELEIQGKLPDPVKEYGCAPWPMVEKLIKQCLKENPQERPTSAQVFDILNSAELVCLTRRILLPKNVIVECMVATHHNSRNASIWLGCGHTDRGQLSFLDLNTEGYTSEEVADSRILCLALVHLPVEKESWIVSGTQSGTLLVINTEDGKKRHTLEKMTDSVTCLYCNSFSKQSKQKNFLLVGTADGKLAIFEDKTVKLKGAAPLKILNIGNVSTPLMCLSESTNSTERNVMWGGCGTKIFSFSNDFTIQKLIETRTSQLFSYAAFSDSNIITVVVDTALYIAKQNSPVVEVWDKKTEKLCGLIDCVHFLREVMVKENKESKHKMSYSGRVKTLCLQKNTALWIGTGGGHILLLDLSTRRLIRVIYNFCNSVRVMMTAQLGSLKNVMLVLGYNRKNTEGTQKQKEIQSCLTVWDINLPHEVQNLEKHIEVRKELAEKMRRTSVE
LRRK2[G2019S], sequence (Q5S007 whole entry G2019S, the tested form may be a part): as the sequence (Q5S007 whole entry, the tested form may be a part) above, with G2019S counted along it

SMILES | IC50 (LRRK2 WT) [µM] | IC50 (LRRK2[G2019S]) [µM]
CC1CCN(c2cc(-c3n[nH]c4ccc(OC5(C)CC5)cc34)nn(C)c2=O)CC(C)O1 (centres unmarked) [Compound 70, 4-(2,7-dimethyl-1,4-oxazepan-4-yl)-2-methyl-6-[5-(1-methylcyclopropoxy)-1H-indazol-3-yl]pyridazin-3-one] | ≤ 0.05 | ≤ 0.05
Cn1nc(-c2n[nH]c3ccc(OC4(C)CC4)cc23)cc(N2CC(O)C(C)(C)C2)c1=O (centres unmarked) [Compound 62, 4-(4-hydroxy-3,3-dimethyl-pyrrolidin-1-yl)-2-methyl-6-[5-(1-methylcyclopropoxy)-1H-indazol-3-yl]pyridazin-3-one] | ≤ 0.05 | ≤ 0.05
Cn1nc(-c2n[nH]c3ccc(OC4(C)CC4)cc23)cc(N2CCCCC(CO)C2)c1=O (centres unmarked) [Compound 75, 4-[3-(hydroxymethyl)azepan-1-yl]-2-methyl-6-[5-(1-methylcyclopropoxy)-1H-indazol-3-yl]pyridazin-3-one] | ≤ 0.05 | ≤ 0.05
CC1(Oc2ccc3[nH]nc(-c4cc(N5CC(F)C(C)(C)C5)c(=O)n(C5CC5)n4)c3c2)CC1 (centres unmarked) [Compound 61, 2-cyclopropyl-4-(4-fluoro-3,3-dimethyl-pyrrolidin-1-yl)-6-[5-(1-methylcyclopropoxy)-1H-indazol-3-yl]pyridazin-3-one] | ≤ 0.05 | ≤ 0.05
CC1(Oc2ccc3[nH]nc(-c4cc(N5CC(C)(C)C6COCC65)c(=O)n(C5CC5)n4)c3c2)CC1 (centres unmarked) [Compound 49, 2-cyclopropyl-4-(3,3-dimethyl-3a,4,6,6a-tetrahydro-2H-furo[3,4-b]pyrrol-1-yl)-6-[5-(1-methylcyclopropoxy)-1H-indazol-3-yl]pyridazin-3-one] | ≤ 0.05 | ≤ 0.05
Cn1nc(-c2n[nH]c3ccc(OC4(C)CC4)cc23)cc(N2CCCCC(C)(O)C2)c1=O (centres unmarked) [Compound 81, 4-(3-hydroxy-3-methyl-azepan-1-yl)-2-methyl-6-[5-(1-methylcyclopropoxy)-1H-indazol-3-yl]pyridazin-3-one] | ≤ 0.05 | ≤ 0.05
CC1CCN(c2cc(-c3n[nH]c4ccc(OC5(C)CC5)cc34)nn(C)c2=O)CCC1O (centres unmarked) [Compound 78, 4-(4-hydroxy-5-methyl-azepan-1-yl)-2-methyl-6-[5-(1-methylcyclopropoxy)-1H-indazol-3-yl]pyridazin-3-one] | ≤ 0.05 | ≤ 0.05
CN1CCCN(c2cc(-c3n[nH]c4ccc(OC5(C)CC5)cc34)nn(C)c2=O)CC1 [Compound 63, 2-methyl-6-[5-(1-methylcyclopropoxy)-1H-indazol-3-yl]-4-(4-methyl-1,4-diazepan-1-yl)pyridazin-3-one] | ≤ 0.05 | ≤ 0.05
Cn1nc(-c2n[nH]c3ccc(OC4(C)CC4)cc23)cc(N2CCOCC(C)(O)C2)c1=O (centres unmarked) [Compound 90, 4-(6-hydroxy-6-methyl-1,4-oxazepan-4-yl)-2-methyl-6-[5-(1-methylcyclopropoxy)-1H-indazol-3-yl]pyridazin-3-one] | ≤ 0.05 | ≤ 0.05
Cn1nc(-c2n[nH]c3ccc(OC4(C)CC4)cc23)cc(N2CCOCC(CO)C2)c1=O (centres unmarked) [Compound 88, 4-[6-(hydroxymethyl)-1,4-oxazepan-4-yl]-2-methyl-6-[5-(1-methylcyclopropoxy)-1H-indazol-3-yl]pyridazin-3-one] | ≤ 0.05 | ≤ 0.05
CC1(Oc2ccc3[nH]nc(-c4cc(N5CCOCC6(CC6)C5)c(=O)n(C5CC5)n4)c3c2)CC1 [Compound 53, 2-cyclopropyl-6-[5-(1-methylcyclopropoxy)-1H-indazol-3-yl]-4-(5-oxa-8-azaspiro[2.6]nonan-8-yl)pyridazin-3-one] | ≤ 0.05 | ≤ 0.05
Cn1nc(-c2n[nH]c3ccc(OC4(C)CC4)cc23)cc(N2CCCN(CC(C)(C)O)CC2)c1=O [Compound 84, 4-[4-(2-hydroxy-2-methyl-propyl)-1,4-diazepan-1-yl]-2-methyl-6-[5-(1-methylcyclopropoxy)-1H-indazol-3-yl]pyridazin-3-one] | ≤ 0.05 | ≤ 0.05
Cn1nc(-c2n[nH]c3ccc(OC4(C)CC4)cc23)cc(N2CCOC(CO)CC2)c1=O (centres unmarked) [Compound 92, 4-[7-(hydroxymethyl)-1,4-oxazepan-4-yl]-2-methyl-6-[5-(1-methylcyclopropoxy)-1H-indazol-3-yl]pyridazin-3-one] | ≤ 0.05 | ≤ 0.05
Cn1nc(-c2n[nH]c3ccc(OC4(C)CC4)cc23)cc(N2CCC(C)(C)NC(C)(C)C2)c1=O [Compound 68, 2-methyl-6-[5-(1-methylcyclopropoxy)-1H-indazol-3-yl]-4-(3,3,5,5-tetramethyl-1,4-diazepan-1-yl)pyridazin-3-one] | ≥ 0.1 | ≥ 0.1
Cn1nc(-c2n[nH]c3ccc(OC4(C)CC4)cc23)cc(N2CC(F)C(C)(C)C2)c1=O (centres unmarked) [Compound 55, 4-(4-fluoro-3,3-dimethyl-pyrrolidin-1-yl)-2-methyl-6-[5-(1-methylcyclopropoxy)-1H-indazol-3-yl]pyridazin-3-one] | ≤ 0.05 | ≤ 0.05
Cn1nc(-c2n[nH]c3ccc(OC4(C)CC4)cc23)cc(N2CCNCC(C)(O)C2)c1=O (centres unmarked) [Compound 93, 4-(6-hydroxy-6-methyl-1,4-diazepan-1-yl)-2-methyl-6-[5-(1-methylcyclopropoxy)-1H-indazol-3-yl]pyridazin-3-one] | ≥ 0.1 | ≥ 0.1
Cn1nc(-c2n[nH]c3ccc(OC4(C)CC4)cc23)cc(N2CC(F)C3(CC3)C2)c1=O (centres unmarked) [Compound 57, 4-(7-fluoro-5-azaspiro[2.4]heptan-5-yl)-2-methyl-6-[5-(1-methylcyclopropoxy)-1H-indazol-3-yl]pyridazin-3-one] | ≤ 0.05 | ≤ 0.05
CN1CCN(c2cc(-c3n[nH]c4ccc(OC5(C)CC5)cc34)nn(C)c2=O)CCC1C(F)(F)F (centres unmarked) [Compound 65, 2-methyl-6-[5-(1-methylcyclopropoxy)-1H-indazol-3-yl]-4-[4-methyl-5-(trifluoromethyl)-1,4-diazepan-1-yl]pyridazin-3-one] | ≤ 0.05 | ≤ 0.05
Cn1nc(-c2n[nH]c3ccc(OC4(C)CC4)cc23)cc(N2CCC(O)C(F)CC2)c1=O (centres unmarked) [Compound 82, 4-(4-fluoro-5-hydroxy-azepan-1-yl)-2-methyl-6-[5-(1-methylcyclopropoxy)-1H-indazol-3-yl]pyridazin-3-one] | ≤ 0.05 | ≤ 0.05
Cn1nc(-c2n[nH]c3ccc(OC4(C)CC4)cc23)cc(N2CCCC(C)(O)CC2)c1=O (centres unmarked) [Compound 79, 4-(4-hydroxy-4-methyl-azepan-1-yl)-2-methyl-6-[5-(1-methylcyclopropoxy)-1H-indazol-3-yl]pyridazin-3-one] | ≤ 0.05 | ≤ 0.05
Cn1nc(-c2n[nH]c3ccc(OC4(C)CC4)cc23)cc(N2CCCNC(C)(C)C2)c1=O [Compound 67, 4-(3,3-dimethyl-1,4-diazepan-1-yl)-2-methyl-6-[5-(1-methylcyclopropoxy)-1H-indazol-3-yl]pyridazin-3-one] | ≥ 0.1 | ≥ 0.1
Cn1nc(-c2n[nH]c3ccc(OC4(C)CC4)cc23)cc(N2CCCOC(C)(C)C2)c1=O [Compound 73, 4-(2,2-dimethyl-1,4-oxazepan-4-yl)-2-methyl-6-[5-(1-methylcyclopropoxy)-1H-indazol-3-yl]pyridazin-3-one] | 0.05 to 0.1 | ≤ 0.05
